Measured values: patent US9113629B2, “4-amino-6-(4-substituted-phenyl)-picolinates and 6-amino-2-(4-substituted-phenyl)-pyrimidine-4-carboxylates and their use as herbicides” (DOW AGROSCIENCES LLC, priority 2013, dated 2015)
Like-named read-outs stand apart in the source and are kept apart here.

Experiments:
[1] = test system: Key Broadleaf Weed and Crop Species; assay: Post-emergent Test II herbicidal activity (Table 5); assay type: in vivo; conditions: post-emergence, 336 h, post-emergent, 14 days after application; for pest or weed control at 70 g/ha: 70 g ai/ha; for pest or weed control at 140 g/ha: 140 g ai/ha
How it was run: (§1)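 Visual injury ratings (0 = no injury, 100 = complete kill) were taken 14 d after treatment, relative to untreated plants. Seedlings at the first–second true leaf stage received overhead spray at 187 L/ha; the highest rate was serially diluted to ½×, ¼×, ⅛× and 1/16×.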

[2] = test system: Key Grass and Sedge Weeds as well as Grass Crops; assay: Post-emergent Test II herbicidal activity (Table 6); assay type: in vivo; conditions: post-emergence, 336 h; for pest or weed control at 70 g/ha: application rate 70 g ai/ha; for pest or weed control at 140 g/ha: application rate 140 g ai/ha
How it was run: as §1

[3] = ABUTH: velvetleaf (Abutilon theophrasti), read-out: Visual Growth Reduction (%) 14 Days After Application ABUTH
[4] = AMARE: redroot pigweed (Amaranthus retroflexus), read-out: Visual Growth Reduction (%) 14 Days After Application AMARE
[5] = BRSNN: oilseed-rape, canola (Brassica napus), read-out: Visual Growth Reduction (%) 14 Days After Application BRSNN
[6] = CHEAL: lambsquarters (Chenopodium album), read-out: Visual Growth Reduction (%) 14 Days After Application CHEAL
[7] = EPHHL: wild poinsettia (Euphorbia heterophylla), read-out: Visual Growth Reduction (%) 14 Days After Application EPHHL
[8] = HELAN: sunflower (Helianthus annuus), read-out: Visual Growth Reduction (%) 14 Days After Application HELAN
[9] = VIOTR: wild pansy (Viola tricolor), read-out: Visual Growth Reduction (%) 14 Days After Application VIOTR
[10] = Triticum aestivum, TRZSS (wheat), read-out: Visual Growth Reduction (%) 14 Days After Application, TRZSS
[11] = CYPES: yellow nutsedge (Cyperus esculentus), read-out: Visual Growth Reduction (%) 14 Days After Application, CYPES
[12] = DIGSA: crabgrass (Digitaria sanguinalis), read-out: Visual Growth Reduction (%) 14 Days After Application, DIGSA
[13] = ECHCG: barnyardgrass (Echinochloa crus-galli), read-out: Visual Growth Reduction (%) 14 Days After Application, ECHCG
[14] = ORYSA: rice (Oryza sativa), read-out: Visual Growth Reduction (%) 14 Days After Application, ORYSA
[15] = SETFA: giant foxtail (Setaria faberi), read-out: Visual Growth Reduction (%) 14 Days After Application, SETFA
[16] = SORVU: grain sorghum (Sorghum vulgare), read-out: Visual Growth Reduction (%) 14 Days After Application, SORVU
[17] = ZEAMX: maize, corn (Zea mays), read-out: Visual Growth Reduction (%) 14 Days After Application, ZEAMX

C=Cc1c(C(=O)OC)nc(-c2ccc(C#N)cc2)c(F)c1N [Compound 107, methyl 4-amino-6-(4-cyanophenyl)-5-fluoro-3-vinylpicolinate]
pest or weed control at 70 g/ha [1, 3]: 75 to 84% | pest or weed control at 140 g/ha [1, 3]: 75 to 84% | pest or weed control at 70 g/ha [1, 4]: 0 to 29% | pest or weed control at 140 g/ha [1, 4]: 0 to 29% | pest or weed control at 70 g/ha [1, 5]: 0 to 29% | pest or weed control at 140 g/ha [1, 5]: 0 to 29% | pest or weed control at 70 g/ha [1, 6]: 95 to 100% | pest or weed control at 140 g/ha [1, 6]: 95 to 100% | pest or weed control at 70 g/ha [1, 7]: 95 to 100% | pest or weed control at 140 g/ha [1, 7]: 95 to 100% | pest or weed control at 70 g/ha [1, 8]: 75 to 84% | pest or weed control at 140 g/ha [1, 8]: 85 to 94% | pest or weed control at 70 g/ha [1, 9]: 0 to 29% | pest or weed control at 140 g/ha [1, 9]: 0 to 29% | pest or weed control at 70 g/ha [2, 10]: 0 to 29% | pest or weed control at 140 g/ha [2, 10]: 0 to 29% | pest or weed control at 70 g/ha [2, 11]: 0 to 29% | pest or weed control at 140 g/ha [2, 11]: 60 to 74% | pest or weed control at 70 g/ha [2, 12]: 0 to 29% | pest or weed control at 140 g/ha [2, 12]: 0 to 29% | pest or weed control at 70 g/ha [2, 13]: 0 to 29% | pest or weed control at 140 g/ha [2, 13]: 0 to 29% | pest or weed control at 70 g/ha [2, 14]: 0 to 29% | pest or weed control at 140 g/ha [2, 14]: 0 to 29% | pest or weed control at 70 g/ha [2, 15]: 0 to 29% | pest or weed control at 140 g/ha [2, 15]: 0 to 29% | pest or weed control at 70 g/ha [2, 16]: 0 to 29% | pest or weed control at 140 g/ha [2, 16]: 0 to 29% | pest or weed control at 70 g/ha [2, 17]: 0 to 29% | pest or weed control at 140 g/ha [2, 17]: 0 to 29%
